Series [1] concerns the target T1, Dihydrofolate reductase (Homo sapiens, UniProt P00374).
T1 sequence (P00374 whole entry): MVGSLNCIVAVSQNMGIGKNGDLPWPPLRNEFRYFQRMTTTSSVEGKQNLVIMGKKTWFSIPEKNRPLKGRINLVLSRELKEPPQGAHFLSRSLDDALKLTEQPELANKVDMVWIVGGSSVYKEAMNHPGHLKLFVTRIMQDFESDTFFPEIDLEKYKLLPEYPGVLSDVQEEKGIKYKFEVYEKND
Put plainly: Inhibition of human DHFR.

Series [2] is described as follows: Cytotoxicity against HEK293 cells assessed as inhibition rate of cell growth at 100 uM incubated for 24 hrs by CCK8 assay relative to control. It counts as toxicity, cell-based. The conditions noted are these: human.
For series [3], the target named is Dihydrofolate reductase (Staphylococcus aureus, UniProt P0A017). Put plainly: Inhibition of Staphylococcus aureus DHFR expressed in Escherichia coli BL21 (DE3) using DHF as substrate preincubated for 10 mins followed by substrate addition measured for 10 mins in presence of NADPH by spectrophotometry.
Chain of Dihydrofolate reductase (Staphylococcus aureus, UniProt P0A017) (P0A017 whole entry): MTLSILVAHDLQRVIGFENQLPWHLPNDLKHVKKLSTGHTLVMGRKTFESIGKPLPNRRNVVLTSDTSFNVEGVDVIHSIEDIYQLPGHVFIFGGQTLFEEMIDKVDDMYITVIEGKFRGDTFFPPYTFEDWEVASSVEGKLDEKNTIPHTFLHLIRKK
Series [4] concerns Mycobacterium tuberculosis. Nature of the series: Antibacterial activity against Mycobacterium tuberculosis H37Ra. It counts as functional.
Series [5] in a line: Cytotoxicity against human NCM460 cells assessed as inhibition rate of cell growth at 100 uM incubated for 24 hrs by CCK8 assay relative to control. It counts as toxicity, cell-based.
Series [6] concerns Staphylococcus aureus. Nature of the series: Antibacterial activity against TMP-resistant Staphylococcus aureus BHKS 227 incubated for 24 hrs by CLSI based broth microdilution assay. It counts as functional.
Series [7] concerns the target T2, Dihydrofolate reductase (Mycobacterium tuberculosis, UniProt P9WNX1).
T2 sequence (P9WNX1 whole entry): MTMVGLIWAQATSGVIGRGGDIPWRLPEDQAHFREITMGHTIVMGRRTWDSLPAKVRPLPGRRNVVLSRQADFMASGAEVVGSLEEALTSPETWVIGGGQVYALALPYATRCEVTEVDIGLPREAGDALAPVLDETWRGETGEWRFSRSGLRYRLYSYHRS
Put plainly: Inhibition of Mycobacterium tuberculosis DHFR.

In series [8] the test system is Staphylococcus aureus. Put plainly: Antibacterial activity against TMP-resistant Staphylococcus aureus BHKS 721 incubated for 24 hrs by CLSI based broth microdilution assay. It counts as functional.
For series [9], the system named is Staphylococcus aureus. Nature of the series: Antibacterial activity against TMP-resistant Staphylococcus aureus BHKS 723 incubated for 24 hrs by CLSI based broth microdilution assay. It counts as functional.
Series [10] concerns Staphylococcus aureus. Nature of the series: Antibacterial activity against Staphylococcus aureus ATCC 25923 incubated for 24 hrs by CLSI based broth microdilution assay. It is filed as functional.
For series [11], the system named is Staphylococcus aureus. Put plainly: Antibacterial activity against Staphylococcus aureus USA 300 incubated for 24 hrs by CLSI based broth microdilution assay. It counts as functional.
The test system of series [12] is Dihydrofolate reductase (Staphylococcus aureus). Particulars: dose 100.0 nM.
Series [13] deals with Staphylococcus aureus. Nature of the series: Antibacterial activity against TMP-resistant Staphylococcus aureus BHKS 231 incubated for 24 hrs by CLSI based broth microdilution assay. It is filed as functional.

pIC50: −log10 of the molar value. Values after ≈ are worked out from the molar mass of the structure shown.

Take `COc1cc(C(C)C)c(Oc2cnc(N)nc2N)cc1I`: the pIC50 on Dihydrofolate reductase [1] is 3.75; on Dihydrofolate reductase [3] it was 7.48; against Dihydrofolate reductase [7] it was 5.46. The inhibition at 24 h, 100 µM was found to be 26.1% in series [2] and 32.1% in series [5]. The MIC in series [4] is 50 µg/mL (≈ 125 µM); with Staphylococcus aureus [6], 0.5 µg/mL (≈ 1.25 µM); in the series on Staphylococcus aureus [8] it was 8 µg/mL (≈ 20 µM); against Staphylococcus aureus [9] it was 8 µg/mL (≈ 20 µM); against Staphylococcus aureus [10], 0.125 µg/mL (≈ 0.312 µM); against Staphylococcus aureus [11], 0.063 µg/mL (≈ 0.157 µM).
`COc1cc(C(C)C)c(Oc2cnc(N)nc2N)cc1-c1ccc(C(C)C)cc1`: the pIC50 at Dihydrofolate reductase [1] was 5.54; on Dihydrofolate reductase [3], 8.74. For the same molecule, the inhibition at 24 h, 100 µM in series [2] turned out to be 46.9%; in [5], 44%. This molecule also returned an inhibition in [12] of 55.7%. Moreover, the MIC in the series with Staphylococcus aureus [6] is 1 µg/mL (≈ 2.55 µM); in the series with Staphylococcus aureus [8], 4 µg/mL (≈ 10.2 µM); against Staphylococcus aureus [9], 4 µg/mL (≈ 10.2 µM); with Staphylococcus aureus [10] it was 0.25 µg/mL (≈ 0.637 µM); against Staphylococcus aureus [11], 0.25 µg/mL (≈ 0.637 µM).
On to `COc1cc(C(C)C)c(Oc2cnc(N)nc2N)cc1-c1ccc(C(C)(C)C)cc1`, for which the inhibition at 24 h, 100 µM in series [2] amounted to 20.7%; in [5] it was 65.6%. In addition, the pIC50 at Dihydrofolate reductase [3] is 7.42. Besides, the inhibition in [12] stood at 54.3%. Also, the MIC against Staphylococcus aureus [6] was found to be 4 µg/mL (≈ 9.84 µM); in the series with Staphylococcus aureus [8], 4 µg/mL (≈ 9.84 µM); against Staphylococcus aureus [9], 4 µg/mL (≈ 9.84 µM); in the series on Staphylococcus aureus [10] it was 0.5 µg/mL (≈ 1.23 µM); with Staphylococcus aureus [11], 0.5 µg/mL (≈ 1.23 µM).
Regarding `Cc1cc(NS(=O)(=O)c2ccc(N)cc2)no1` [SULFAMETHOXAZOLE], the MIC against Staphylococcus aureus [6] is 4 µg/mL (≈ 15.8 µM); against Staphylococcus aureus [8], 0.5 µg/mL (≈ 1.97 µM); with Staphylococcus aureus [9] it was 4 µg/mL (≈ 15.8 µM); in the series on Staphylococcus aureus [10], 2 µg/mL (≈ 7.9 µM); against Staphylococcus aureus [11] it was 2 µg/mL (≈ 7.9 µM); with Staphylococcus aureus [13], 256 µg/mL (≈ 1010 µM).
As for `COc1cc(C(C)C)c(Oc2cnc(N)nc2N)cc1-c1ccc(Cl)cc1`, the inhibition at 24 h, 100 µM in series [2] is 16.4%; in [5], 69.1%. Moreover, the pIC50 at Dihydrofolate reductase [3] is 7.18. The molecule also displayed an inhibition in series [12] of 94.3%. Further, the MIC came out at 1 µg/mL (≈ 2.6 µM) in the series on Staphylococcus aureus [6]; 16 µg/mL (≈ 41.6 µM) in the series with Staphylococcus aureus [8]; 16 µg/mL (≈ 41.6 µM) against Staphylococcus aureus [9]; 0.25 µg/mL (≈ 0.65 µM) with Staphylococcus aureus [10]; 0.25 µg/mL (≈ 0.65 µM) with Staphylococcus aureus [11].
In the case of `COc1ccc(Oc2cnc(N)nc2N)cc1-c1ccc(C(F)(F)F)cc1`, the inhibition at 24 h, 100 µM came out at 42.3% in series [2] and 68.3% in series [5]. Further, at Dihydrofolate reductase [3], the pIC50 is 8.08. The inhibition in [12] was over 100%. In addition, the MIC was determined as 4 µg/mL (≈ 10.6 µM) against Staphylococcus aureus [6]; 4 µg/mL (≈ 10.6 µM) with Staphylococcus aureus [8]; 4 µg/mL (≈ 10.6 µM) with Staphylococcus aureus [9]; 0.031 µg/mL (≈ 0.0824 µM) with Staphylococcus aureus [10]; 0.016 µg/mL (≈ 0.0425 µM) in the series with Staphylococcus aureus [11].
As to `CCCCCOc1cc(C(C)C)c(Oc2cnc(N)nc2N)cc1I`, the figures for the inhibition at 24 h, 100 µM in [2] and in series [5] were 64.9% and 41.5%, respectively. The pIC50 on Dihydrofolate reductase [3] is 8.08. The same molecule registered an inhibition in series [12] of 45.8%. Also, the MIC was 2 µg/mL (≈ 4.38 µM) with Staphylococcus aureus [6]; 4 µg/mL (≈ 8.77 µM) in the series on Staphylococcus aureus [8]; 4 µg/mL (≈ 8.77 µM) in the series with Staphylococcus aureus [9]; 0.125 µg/mL (≈ 0.274 µM) with Staphylococcus aureus [10]; 0.125 µg/mL (≈ 0.274 µM) in the series with Staphylococcus aureus [11].
Turning to `COc1cc(C(C)C)c(Oc2cnc(N)nc2N)cc1-c1ccc(C(F)(F)F)cc1`, the inhibition at 24 h, 100 µM turned out to be 27.4% in series [2] and 65% in series [5]. Besides, the pIC50 on Dihydrofolate reductase [3] was 7.22. The inhibition in [12] was found to be 68.1%. Further, the MIC against Staphylococcus aureus [6] stood at 2 µg/mL (≈ 4.78 µM); with Staphylococcus aureus [8], 16 µg/mL (≈ 38.2 µM); against Staphylococcus aureus [9], 16 µg/mL (≈ 38.2 µM); against Staphylococcus aureus [10] it was 0.5 µg/mL (≈ 1.19 µM); in the series with Staphylococcus aureus [11] it was 0.5 µg/mL (≈ 1.19 µM).
On to `COc1cc(C(C)C)c(Oc2cnc(N)nc2N)cc1-c1cc(F)cc(F)c1`, for which the inhibition at 24 h, 100 µM came to 45.2% in series [2] and 52.1% in series [5]. Moreover, at Dihydrofolate reductase [3], the pIC50 is 7.38. The inhibition in series [12] was over 100%. Also, the MIC against Staphylococcus aureus [6] turned out to be 4 µg/mL (≈ 10.4 µM); in the series on Staphylococcus aureus [8] it was 32 µg/mL (≈ 82.8 µM); with Staphylococcus aureus [9], 32 µg/mL (≈ 82.8 µM); with Staphylococcus aureus [10], 1 µg/mL (≈ 2.59 µM); against Staphylococcus aureus [11], 0.5 µg/mL (≈ 1.29 µM).
Consider `COc1cc(C(C)C)c(Oc2cnc(N)nc2N)cc1-c1cc(Cl)cc(Cl)c1`, for which the results for the inhibition at 24 h, 100 µM in [2] and in series [5] were 39.7% and 66.2%, respectively. For the same molecule, the pIC50 at Dihydrofolate reductase [3] was 7.81. The molecule further had an inhibition in [12] of 78.6%. Also, the minimal inhibitory concentration (MIC) with Staphylococcus aureus [6] was 1 µg/mL (≈ 2.38 µM); with Staphylococcus aureus [8], 4 µg/mL (≈ 9.54 µM); in the series with Staphylococcus aureus [9], 4 µg/mL (≈ 9.54 µM); against Staphylococcus aureus [10] it was 0.125 µg/mL (≈ 0.298 µM); in the series on Staphylococcus aureus [11], 0.125 µg/mL (≈ 0.298 µM).
Turning to `CC(C)c1cc(OCC2CCCC2)c(I)cc1Oc1cnc(N)nc1N`, the inhibition at 24 h, 100 µM in [2] is 64%; in [5], 35.2%. Also, on Dihydrofolate reductase [3], the pIC50 is 7.99. Moreover, the inhibition in series [12] is 76.4%. Further, the MIC in the series with Staphylococcus aureus [6] was found to be 2 µg/mL (≈ 4.27 µM); in the series on Staphylococcus aureus [8], 8 µg/mL (≈ 17.1 µM); with Staphylococcus aureus [9], 4 µg/mL (≈ 8.54 µM); with Staphylococcus aureus [10] it was 0.125 µg/mL (≈ 0.267 µM); in the series with Staphylococcus aureus [11], 0.125 µg/mL (≈ 0.267 µM).
